Results: patent US20230078511A1, “METHODS OF USING MOMELOTINIB TO TREAT JOINT INFLAMMATION” (Sierra Oncology, Inc., priority 2020, published 2023)

Assays:
[1] = test system: CAIA DBA/1 mice; assay: Collagen antibody-induced arthritis (CAIA) in DBA/1 mice (Example 2); type: in vivo
Excerpt: Regular monitoring of arthritis progression in all animal models is accomplished by measuring hind limb ankle joint diameters with a Vernier's caliper (volume = D × d^2Π/6, D and d are ankle diameters measured in perpendicular axes, D > d). In murine arthritis models, animals are additionally clinically scored with a system assessing swelling and mobility of each animal's limb, as described in […] et al., Arthritis Res. Ther. 8:[…], 2007, which is hereby incorporated by reference in its entirety. Each paw of an experimental animal is assessed separately as follows: 0 - normal, 1 - slight swelling or […], 2 - pronounced swelling, 3 - joint rigidity. The paw scores for each animal are summed giving a maximum of 12 points per mouse. Scoring is performed by a rater blinded to the group assignment. In order to evaluate efficacy of MMB treatment in a second arthritic animal model, arthritis was induced in DBA/1 mice by intravenous injection of collagen antibody cocktail on day 0 followed by intraperitoneal injection of lipopolysaccharide (LPS) on day 3. […] Comparator controls dexamethasone (1 mg/kg) or the TNF-α inhibitor, etanercept (10 mg/kg) were administered daily by intraperitoneal injection beginning on day 0.

[2] = test system: CAIA BALB/C mice; assay: CAIA murine rheumatoid arthritis model in BALB/C mice (Example 4); type: in vivo; settings: for mean rear paw rheumatoid arthritis score / mean rear paw thickness / mean total animal rheumatoid arthritis score: beginning on day 6, vs vehicle, MMB 50 mg/kg daily or 30 mg/kg twice daily oral, etanercept 10 mg/kg daily IP
Protocol: BALB/C mice were immunized with 2 mg anti-collagen II antibodies administered intraperitoneally (IP) on day 0 followed by intraperitoneal injection of 100 µg of lipopolysaccharide (LPS) on day 3. Beginning at RA induction, mice were treated orally for the entirety of the study either once daily vehicle, MMB (50 mg/kg), twice daily with MMB (30 mg/kg), or daily intraperitoneally, etanercept (ETA) (10 mg/kg). Consecutive assessment of rheumatoid arthritis was performed by animal and rear paw scoring, and rear paw thickness measurements.

[3] = test system: PG-PS-immunized rats; assay: PG-PS induced rat model of chronic arthritis (Example 1); type: in vivo, Lewis rats
Protocol: Six-week old female Lewis rats are immunized with 15 mg/kg Streptococcal Peptidoglycan-Polysaccharide (PG-PS) administered intraperitoneally (IP). Treatments with anti-inflammatory drugs of interest are commenced two weeks later and continue for 7 days (short-term) to 21 days (long-term). Disease progression is monitored as described below (see Joint Pathology, Clinical Scoring and Bio-Imaging). Blood samples are collected once weekly and processed as described below. At the conclusion of experiments, blood, serum, and organ samples are collected and processed as described herein.
Spleen and lymph node cells are isolated by mechanical pressing of the organ through a 100 µm cell strainer (Corning) in PBS. For isolation of rat synovial infiltrates, hind limbs are freed of skin, bones, and major tendons. The remaining tissue is minced and digested with 0.16 U Liberase TM, 10 µg/mL DNase I, and 60 U hyaluronidase I in RPMI at 37° C. for 1 hour. Blood is collected into heparinized tubes and used directly for blood count determination. For immunophenotyping of blood leukocytes, blood samples are depleted from red blood cells by lysis with ACK buffer (150 mM NH4Cl, 10 mM KHCO3, 0.1 mM EDTA).
Flow cytometry staining is performed as described in Parajuli et al., Int. J. Cancer 126:896-908, 2010, which is hereby incorporated by reference in its entirety. Measurements are performed with a Cytoflex S device (Beckman Coulter) and FACS Symphony (Beckton Dickinson), enabling detection of 13 and 52 fluorescence parameters, respectively, as well as automated absolute cell count determination.
For intracellular cytokine/transcription factor staining, rat and murine T cells are re-stimulated for 4 hours with phorbol 12,13-dibutyrate (PDBu) and ionomycin (50 ng/mL and 500 ng/mL, respectively) in the presence of Golgi Stop (BD Bioscience). In sum, five multicolor antibody panels per species (rat, mouse) are established (blood leukocytes, organ leukocytes, intracellular staining for Th cell subtypes, blood reticulocytes, bone marrow erythropoiesis). Data analysis is performed using FlowJo Software.
Regular monitoring of arthritis progression in all animal models is accomplished by measuring hind limb ankle joint diameters with a Vernier’s caliper (volume = D × d^2Π/6, D and d are ankle diameters measured in perpendicular axes, D > d). In murine arthritis models, animals are additionally clinically scored with a system assessing swelling and mobility of each animal’s limb, as described in Inglis et al., Arthritis Res. Ther. 8:R113, 2007, which is hereby incorporated by reference in its entirety. Each paw of an experimental animal is assessed separately as follows: 0 - normal, 1 - slight swelling or erythrema, 2 - pronounced swelling, 3 - joint rigidity. The paw scores for each animal are summed giving a maximum of 12 points per mouse. Scoring is performed by a rater blinded to the group assignment.
A rat model of chronic arthritis (PG-PS induced) was used to assess the efficacy of the dual JAK1/2 and ACVR1 inhibitor momelotinib (MMB) in vivo. Two weeks following arthritis induction by immunization with PG-PS, rats were treated with daily oral doses of MMB (5, 10, and 25 mg/kg) or vehicle for 3 weeks.
Consecutive assessment of arthritis was performed by joint thickness measurements and paw scoring. Following 3 weeks of treatment, synovial immune cell infiltration and T cell subset differentiation were quantified by multi-color flow cytometry. Cytokine gene expression was profiled by Real-Time PCR. Anemia was assessed by determination of blood hemoglobin and serum, spleen and liver iron levels.

[4] = test system: PG-PS-immunized RA rats; assay: PG-PS rat rheumatoid arthritis (RA) model, 3 or 21 days of treatment (Example 3); type: in vivo, Lewis rats
Protocol: Female Lewis rats were immunized with 15 mg/kg Streptococcal Peptidoglycan-Polysaccharide (PG-PS) administered intraperitoneally (IP) to generate a rat model of rheumatoid arthritis. Rats were used to assess the efficacy of the dual JAK1/2 and ACVR1 inhibitor momelotinib (MMB) in vivo. Two weeks following rheumatoid arthritis induction by immunization with PG-PS, rats were treated with daily oral doses of MMB (5, 10, 25 mg/kg) or vehicle for 3 or 21 days.
Statistical significance was determined with one-way ANOVA for RA animals with Bonferroni post-hoc tests (N=5-10 per group, * p < 0.05, ** p < 0.01).
Cytokine gene expression was profiled by Real-Time PCR. For immunophenotyping of blood leukocytes and granulocyte counts were obtained. Anemia was assessed by determination of blood hemoglobin and serum, spleen and liver iron levels.

[5] = molecular target: T1, Activin Receptor Type 1 (ACVR1) (Homo sapiens, UniProt Q04771); settings: background statement; cited from earlier work
T1 sequence (Q04771 21-509): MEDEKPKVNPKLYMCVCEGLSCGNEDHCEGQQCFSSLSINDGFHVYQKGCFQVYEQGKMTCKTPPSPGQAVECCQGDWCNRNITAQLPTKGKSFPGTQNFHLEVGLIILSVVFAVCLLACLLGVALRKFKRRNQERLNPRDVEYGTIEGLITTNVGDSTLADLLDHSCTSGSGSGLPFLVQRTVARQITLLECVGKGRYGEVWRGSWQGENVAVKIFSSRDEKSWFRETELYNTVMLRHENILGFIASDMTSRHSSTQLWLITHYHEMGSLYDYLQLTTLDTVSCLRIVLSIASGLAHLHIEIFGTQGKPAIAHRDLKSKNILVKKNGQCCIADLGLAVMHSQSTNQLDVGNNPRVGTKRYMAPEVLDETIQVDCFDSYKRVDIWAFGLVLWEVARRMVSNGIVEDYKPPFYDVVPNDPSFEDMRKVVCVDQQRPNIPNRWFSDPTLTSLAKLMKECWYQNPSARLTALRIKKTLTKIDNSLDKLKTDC

[6] = test system: rat model; settings: background statement; cited from earlier work
[7] = test system: myelofibrosis patients; settings: myelofibrosis patients treated with MMB; background statement; cited from earlier work
[8] = beginning on day 5, vs vehicle, MMB 50 mg/kg daily or 30 mg/kg twice daily oral, etanercept 10 mg/kg daily IP
[9] = all tested doses (5, 10, 25 mg/kg), vs vehicle in PG-PS animals
[10] = beginning at the lowest tested dose (5 mg/kg)
[11] = daily oral, 3 weeks, flow cytometry
[12] = daily oral, 3 weeks, hind limb ankle joints, flow cytometry
[13] = 21 days of treatment, compared to healthy and RA rats
[14] = 21 days of treatment, flow cytometry

etanercept [reference compound]
mean rear paw arthritis score [1, 8]: significant reduction | mean rear paw thickness [1, 8]: significant reduction | mean total arthritis score [1, 8]: significant reduction | mean rear paw rheumatoid arthritis score [2]: significant reduction | mean rear paw thickness [2]: significant reduction | mean total animal rheumatoid arthritis score [2]: significant reduction

N#CCNC(=O)c1ccc(-c2ccnc(Nc3ccc(N4CCOCC4)cc3)n2)cc1 [MMB, N-(cyanomethyl)-4-(2-(4-morpholinophenylamino)pyrimidin-4-yl)benzamide]
joint swelling ([3]; 25 mg/kg): complete remission | splenic granulocytes (percentage of splenic CD45+ leukocytes) ([3]; 25 mg/kg for 3 weeks, flow cytometry): significant reduction | mean sum diameter of hind limb joints ([3]; 10 and 25 mg/kg daily oral, 3 weeks, caliper on last day of treatment, vs vehicle): significant reduction | reduction of inflammatory granulocyte infiltration in synovial tissue [3, 9]: more than 60% | reduction of macrophage infiltration in synovial tissue [3, 9]: more than 60% | arthritogenic Th17 cell differentiation [3, 10]: effectively decreased | overall CD4+ T cells in the synovia [3, 10]: effectively decreased | swelling and cartilage destruction in arthritic hind limb joints ([3]; daily oral, 3 weeks, H&E sections at 10 mg/kg): substantially inhibits | granulocytes in synovial tissue of hind limb ankle joint pairs [3, 11]: significantly reduced | inflammatory CD11b/c+ macrophages in synovial tissue [3, 11]: significantly reduced | monocytes in synovial tissue [3, 11]: significantly reduced | splenic Th1 cells [3, 11]: reduced | splenic Th17 cells [3, 11]: significant reduction | splenic Treg cells [3, 11]: not significantly altered | synovial CD4+ T cells [3, 12]: significant reductions | synovial CD8+ T cells [3, 12]: significant reductions | CD4+ T cells in the arthritic ankle synovia ([3]; lowest dose tested, 5 mg/kg): Reduction | RA-associated anemia ([3]; rats): substantial improvement | circulating hepcidin levels ([3]; rats): reduced | systemic iron ([3]; rats): mobilized | mean rear paw thickness ([1]; 20 mg/kg daily oral, days 7 and 12, vs vehicle): reduction | arthritis scoring versus the TNF-α inhibitor etanercept ([1]; CAIA model, DBA/1 mice): non-inferiority | mean rear paw arthritis score [1, 8]: significant reduction | mean rear paw thickness [1, 8]: significant reduction | mean total arthritis score [1, 8]: significant reduction | blood granulocyte counts ([4]; 3 days of treatment): significantly decreases | blood leukocyte counts ([4]; 3 days of treatment): significantly decreases | spleen and liver cytokine expression ([4]; 3 days of treatment, Real-Time PCR): significantly decreases | cartilage damage ([4]; 21 days of treatment, H&E-stained hind limb joint sections): alleviates | anemia [4, 13]: corrects | hepcidin [4, 13]: decreases | hind limb joint swelling ([4]; 21 days of treatment, figure shows 10 mg/kg): reduces | CD4+ T cell infiltration in hind-limb synovial tissue [4, 14]: significantly reduces | CD8+ T cell infiltration in hind-limb synovial tissue [4, 14]: significantly reduces | differentiation of splenic Th17 cells [4, 14]: inhibits | infiltration of macrophages in hind limb synovia [4, 14]: reduces | infiltration of neutrophils in hind limb synovia [4, 14]: reduces | regulatory Treg cells [4, 14]: without affecting | splenic Th1 cells [4, 14]: without affecting | iron availability ([4]; rat PG-PS model): improves | rheumatoid arthritis scoring versus the TNF-α inhibitor etanercept ([2]; CAIA model, BALB/C mice): non-inferiority | mean rear paw rheumatoid arthritis score [2]: significant reduction | mean rear paw thickness [2]: significant reduction | mean total animal rheumatoid arthritis score [2]: significant reduction | anti-arthritic effectiveness compared with etanercept ([2]; murine CAIA RA model): at least equally effective | inhibition of ACVR1 [5]: potent inhibition | anemia [6]: correct anemia | anemia benefit [7]: clinically reproduced
